ChEMBL document CHEMBL1201862, “PubChem BioAssay data set” (2004)
One block for each molecule: values may come before it. The source made the active and inactive calls.

What was measured:
[1] = target: E3 ubiquitin-protein ligase Mdm2 (Homo sapiens, UniProt Q00987); test: enhancers of MDM2-luciferase reporter signal, concentration-effect titration, project on inhibitors of MDM2 ubiquitin ligase, cellular assay, luminescent readout, 384-well plate format (AID 1394); format: functional;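 note: MDM2 E3 inhibitors raise luminescence so EC50 is for signal enhancement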
Chain of E3 ubiquitin-protein ligase Mdm2 (Q00987 whole entry): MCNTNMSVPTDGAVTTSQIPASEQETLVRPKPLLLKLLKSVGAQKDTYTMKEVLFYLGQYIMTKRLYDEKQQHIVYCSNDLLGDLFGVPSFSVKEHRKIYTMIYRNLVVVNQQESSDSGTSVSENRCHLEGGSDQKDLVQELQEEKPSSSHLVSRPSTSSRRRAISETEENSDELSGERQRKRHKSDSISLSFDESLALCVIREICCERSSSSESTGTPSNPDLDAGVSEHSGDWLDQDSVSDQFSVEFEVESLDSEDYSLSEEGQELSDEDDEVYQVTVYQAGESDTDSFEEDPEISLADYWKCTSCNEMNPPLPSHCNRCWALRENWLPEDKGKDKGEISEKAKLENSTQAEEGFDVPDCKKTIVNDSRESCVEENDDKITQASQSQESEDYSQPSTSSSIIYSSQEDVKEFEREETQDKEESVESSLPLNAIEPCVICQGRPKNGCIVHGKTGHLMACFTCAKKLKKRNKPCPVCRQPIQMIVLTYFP

[2] = target: T1, Ubiquitin-conjugating enzyme E2 N (Homo sapiens, UniProt P61088); format: functional;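 note: Dose-response confirmation in a TR-FRET assay detecting UBC13-driven polyubiquitin chain formation, inhibition measured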
T1 sequence (P61088 whole entry): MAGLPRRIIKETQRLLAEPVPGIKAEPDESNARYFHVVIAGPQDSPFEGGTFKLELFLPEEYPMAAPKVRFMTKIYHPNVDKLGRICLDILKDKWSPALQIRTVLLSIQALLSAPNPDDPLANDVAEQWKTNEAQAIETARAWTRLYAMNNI

[3] = target: T2, Short transient receptor potential channel 4 (Mus musculus, UniProt Q9QUQ5); test: mouse TRPC4 channel activators, dose response, cell-based, HEK293 TRPC4/mu-opioid, Fluo-4 calcium (AID 434937); format: functional
T2 sequence (Q9QUQ5 whole entry): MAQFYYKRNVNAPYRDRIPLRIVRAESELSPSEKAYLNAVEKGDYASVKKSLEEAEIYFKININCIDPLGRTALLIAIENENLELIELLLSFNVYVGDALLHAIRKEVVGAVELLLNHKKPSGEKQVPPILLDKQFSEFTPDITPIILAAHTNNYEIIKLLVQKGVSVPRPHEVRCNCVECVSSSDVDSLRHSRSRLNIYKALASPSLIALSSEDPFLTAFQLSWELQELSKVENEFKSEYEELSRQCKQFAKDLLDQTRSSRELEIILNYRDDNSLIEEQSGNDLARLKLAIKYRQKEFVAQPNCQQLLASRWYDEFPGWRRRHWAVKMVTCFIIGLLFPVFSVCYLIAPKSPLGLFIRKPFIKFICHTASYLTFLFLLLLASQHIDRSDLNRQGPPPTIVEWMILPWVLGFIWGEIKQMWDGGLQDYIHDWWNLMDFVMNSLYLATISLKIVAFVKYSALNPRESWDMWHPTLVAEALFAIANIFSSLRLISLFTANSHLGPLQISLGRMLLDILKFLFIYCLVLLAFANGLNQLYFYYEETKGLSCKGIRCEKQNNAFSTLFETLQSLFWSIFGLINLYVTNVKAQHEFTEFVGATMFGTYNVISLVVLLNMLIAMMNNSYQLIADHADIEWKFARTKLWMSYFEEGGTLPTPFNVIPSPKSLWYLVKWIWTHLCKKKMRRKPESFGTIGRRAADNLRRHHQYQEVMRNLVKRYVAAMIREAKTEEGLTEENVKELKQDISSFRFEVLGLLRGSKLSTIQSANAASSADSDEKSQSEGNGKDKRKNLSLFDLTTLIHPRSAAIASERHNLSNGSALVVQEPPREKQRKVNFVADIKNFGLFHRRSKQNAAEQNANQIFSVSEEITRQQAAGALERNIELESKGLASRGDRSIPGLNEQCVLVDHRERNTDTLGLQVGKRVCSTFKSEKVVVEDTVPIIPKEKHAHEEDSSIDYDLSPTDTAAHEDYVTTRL

[4] = target: T3, Histone-lysine N-methyltransferase NSD2 (Homo sapiens, UniProt O96028); format: biochemical
T3 sequence (O96028 whole entry): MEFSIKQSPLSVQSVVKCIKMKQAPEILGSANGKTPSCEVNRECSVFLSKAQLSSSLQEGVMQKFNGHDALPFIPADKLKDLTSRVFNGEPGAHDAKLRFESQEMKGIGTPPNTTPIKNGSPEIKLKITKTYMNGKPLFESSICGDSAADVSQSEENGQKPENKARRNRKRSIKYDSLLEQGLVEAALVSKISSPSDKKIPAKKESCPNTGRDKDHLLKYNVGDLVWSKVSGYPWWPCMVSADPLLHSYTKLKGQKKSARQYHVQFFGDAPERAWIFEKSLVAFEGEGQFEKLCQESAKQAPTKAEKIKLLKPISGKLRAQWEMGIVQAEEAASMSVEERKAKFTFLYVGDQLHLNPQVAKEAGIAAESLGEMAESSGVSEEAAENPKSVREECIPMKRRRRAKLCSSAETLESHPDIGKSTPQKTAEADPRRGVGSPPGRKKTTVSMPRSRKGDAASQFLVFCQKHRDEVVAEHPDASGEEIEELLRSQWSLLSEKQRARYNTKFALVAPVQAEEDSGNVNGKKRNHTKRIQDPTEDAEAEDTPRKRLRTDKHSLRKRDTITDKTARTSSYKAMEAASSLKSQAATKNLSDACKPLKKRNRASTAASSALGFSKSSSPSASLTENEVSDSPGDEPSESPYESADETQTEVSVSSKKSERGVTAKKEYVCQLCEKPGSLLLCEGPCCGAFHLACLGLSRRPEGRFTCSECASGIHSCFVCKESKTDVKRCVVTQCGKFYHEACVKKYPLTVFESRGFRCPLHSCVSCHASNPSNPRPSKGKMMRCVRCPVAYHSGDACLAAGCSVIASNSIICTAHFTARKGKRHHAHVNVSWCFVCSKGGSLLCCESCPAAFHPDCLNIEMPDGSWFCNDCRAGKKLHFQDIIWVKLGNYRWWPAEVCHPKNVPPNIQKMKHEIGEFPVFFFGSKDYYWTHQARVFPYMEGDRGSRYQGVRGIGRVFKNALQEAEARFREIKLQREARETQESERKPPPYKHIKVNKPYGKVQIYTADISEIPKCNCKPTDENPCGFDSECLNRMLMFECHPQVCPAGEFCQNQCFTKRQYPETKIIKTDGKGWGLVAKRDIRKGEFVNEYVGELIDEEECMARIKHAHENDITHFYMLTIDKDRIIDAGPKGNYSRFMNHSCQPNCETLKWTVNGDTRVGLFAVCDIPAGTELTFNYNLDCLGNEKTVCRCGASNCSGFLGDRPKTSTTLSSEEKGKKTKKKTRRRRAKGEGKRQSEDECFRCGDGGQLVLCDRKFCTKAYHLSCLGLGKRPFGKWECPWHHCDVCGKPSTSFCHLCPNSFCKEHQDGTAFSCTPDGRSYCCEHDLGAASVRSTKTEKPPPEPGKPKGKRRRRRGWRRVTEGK

Transthyretin = Transthyretin (Homo sapiens, UniProt P02766); test: Luminescence-based cell-based high throughput dose response assay to identify activators of Transthyretin (TTR) transcription.; format: functional
Estrogen receptor beta [5] = target: T4, Estrogen receptor beta (Homo sapiens, UniProt Q92731);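 note: recombinant ER-beta bound to coactivator SRC1 peptide in presence of estradiol agonist; inhibitors block coactivator peptide binding and lower the FRET signal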
T4 sequence (Q92731 whole entry): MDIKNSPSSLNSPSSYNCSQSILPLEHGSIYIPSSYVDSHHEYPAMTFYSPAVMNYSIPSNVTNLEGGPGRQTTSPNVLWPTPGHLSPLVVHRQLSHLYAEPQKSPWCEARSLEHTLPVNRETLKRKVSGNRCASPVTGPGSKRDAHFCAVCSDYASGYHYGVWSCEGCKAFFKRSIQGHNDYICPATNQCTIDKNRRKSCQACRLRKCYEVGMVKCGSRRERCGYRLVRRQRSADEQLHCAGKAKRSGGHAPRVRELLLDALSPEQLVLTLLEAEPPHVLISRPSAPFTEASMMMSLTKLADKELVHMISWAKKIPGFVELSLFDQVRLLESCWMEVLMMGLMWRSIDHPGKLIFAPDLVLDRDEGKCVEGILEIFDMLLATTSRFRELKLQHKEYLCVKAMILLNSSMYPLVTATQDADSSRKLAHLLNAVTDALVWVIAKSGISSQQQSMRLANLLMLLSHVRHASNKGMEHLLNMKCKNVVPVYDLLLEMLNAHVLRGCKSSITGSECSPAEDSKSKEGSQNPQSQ

Estrogen receptor beta [6] = target: T4, Estrogen receptor beta; test: ERβ–SRC-3 coactivator interaction inhibitors, confirmation, orthogonal assay, biochemical, ELISA, streptavidin-HRP readout (AID 1060)
Protein skinhead-1 = target: T5, Protein skinhead-1 (Caenorhabditis elegans, UniProt P34707); format: functional
T5 sequence (P34707 whole entry): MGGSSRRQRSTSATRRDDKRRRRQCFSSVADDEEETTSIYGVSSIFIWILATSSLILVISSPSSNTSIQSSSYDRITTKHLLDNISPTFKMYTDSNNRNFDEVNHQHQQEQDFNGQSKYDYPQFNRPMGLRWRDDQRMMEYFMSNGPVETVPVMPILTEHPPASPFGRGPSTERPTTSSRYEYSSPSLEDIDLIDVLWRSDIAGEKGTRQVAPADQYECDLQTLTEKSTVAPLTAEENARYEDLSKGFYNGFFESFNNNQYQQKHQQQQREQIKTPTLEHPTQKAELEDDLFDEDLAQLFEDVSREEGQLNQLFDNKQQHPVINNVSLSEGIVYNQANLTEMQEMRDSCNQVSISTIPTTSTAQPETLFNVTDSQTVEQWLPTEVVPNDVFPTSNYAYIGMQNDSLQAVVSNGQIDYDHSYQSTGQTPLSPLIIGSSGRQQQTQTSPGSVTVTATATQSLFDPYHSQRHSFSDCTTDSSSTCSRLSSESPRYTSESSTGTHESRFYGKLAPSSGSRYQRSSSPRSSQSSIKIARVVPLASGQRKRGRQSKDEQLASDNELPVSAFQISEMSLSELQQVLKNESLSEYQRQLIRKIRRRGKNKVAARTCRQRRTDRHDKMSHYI

[7] = target: RNA-editing ligase 1, mitochondrial (Trypanosoma brucei brucei, UniProt P86926); test: TbREL1 ligase inhibitors, dose response, biochemical, fluorescence, Trypanosoma brucei (AID 1117295); format: functional
Chain of RNA-editing ligase 1, mitochondrial (P86926 whole entry): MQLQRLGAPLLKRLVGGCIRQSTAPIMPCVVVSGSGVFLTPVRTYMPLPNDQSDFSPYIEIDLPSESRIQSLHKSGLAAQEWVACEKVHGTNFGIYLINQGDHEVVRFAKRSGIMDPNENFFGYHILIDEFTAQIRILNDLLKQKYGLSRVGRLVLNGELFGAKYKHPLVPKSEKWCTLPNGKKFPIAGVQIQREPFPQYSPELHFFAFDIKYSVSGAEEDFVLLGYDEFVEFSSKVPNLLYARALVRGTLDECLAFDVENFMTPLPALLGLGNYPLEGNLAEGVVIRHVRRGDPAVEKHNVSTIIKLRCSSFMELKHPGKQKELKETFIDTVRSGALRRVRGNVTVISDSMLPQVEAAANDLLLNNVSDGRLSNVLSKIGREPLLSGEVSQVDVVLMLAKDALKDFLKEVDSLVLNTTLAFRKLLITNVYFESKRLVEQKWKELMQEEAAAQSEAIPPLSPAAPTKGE

[8] = A549 cell cytotoxicity, dose response, cytotoxicity control, plate reader, cherry-pick, antagonist series (AID 743412); format: functional, cell-based
[9] = HepG2 cell cytotoxicity, dose response, cytotoxicity control, plate reader, cherry-pick, antagonist series (AID 743416); format: functional, cell-based
[10] = LGR2 antagonists, dose response, cell-based, HEK293, CRE-luciferase reporter, cherry pick, set 2 (AID 743343); format: functional;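 note: transfected cells were stimulated with diluted bursicon conditioned medium after compound addition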
[11] = MC4R antagonists, dose response, counter-screen for LGR2 antagonist project, cell-based, plate reader, cherry pick (AID 743444); format: functional;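 note: transfected HEK 293 cells stimulated with alpha-MSH peptide; potency of inhibitors of the alpha-MSH evoked signal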
[12] = HEK293 cell cytotoxicity, dose response, cytotoxicity control, plate reader, cherry-picked samples (AID 743446); format: functional, cell-based
[13] = P. falciparum 3D7-ScDHODH growth inhibitors, dose response, SYBR Green, dry powder samples (AID 1159570); format: functional, cell-based;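 note: parasite growth measured after 72 hours of compound exposure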
[14] = HepG2 cell cytotoxicity, dose response, cytotoxicity control, plate reader, dry powder samples (AID 1159569); format: functional, cell-based;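 note: inhibitor potency with signal falling toward the positive control level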
[15] = P. falciparum Dd2 growth inhibitors, dose response, SYBR Green, cherry-picked samples (AID 1159567); format: functional, cell-based
[16] = P. falciparum Dd2 growth inhibitors, dose response, SYBR Green, dry powder samples (AID 1159566); format: functional, cell-based;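 note: potency for growth inhibition with lower SYBR green DNA signal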
[17] = P. falciparum ATP4 D1247Y mutant growth inhibitors, dose response, NITD609-resistant line, SYBR Green, dry powder (AID 1159571); format: functional, cell-based;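 note: parasites synchronized at ring stage by sorbitol before testing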

SMILES: CC(C)n1cnc2c(N(C)c3ccccc3)nc(N(CCN(C)C)Cc3ccccc3)nc21
EC50 [1]: 19.3 µM (not active) | IC50 [2]: > 20 µM (inactive) | EC50 [3]: 10.6 µM (active)

SMILES: CCCC(=O)NC1=C(N2CC2)C(=O)C(NC(=O)CCC)=C(N2CC2)C1=O
AC50 [4]: 6.65 µM (active) | EC50 (Transthyretin): > 167 µM (inactive)

SMILES: Nc1c(C(=O)Nc2ccc(F)cc2)sc2nc(-c3ccco3)ccc12
IC50 (Estrogen receptor beta [5]): > 50 µM (not active) | IC50 (Estrogen receptor beta [6]): > 50 µM (not active) | IC50 (Protein skinhead-1): > 100 µM (inactive)

SMILES: N#Cc1ccc(-c2ccc([C@@H]3[C@@H]4CN(C(=O)C5CCC5)C[C@H]3N4)cc2)cc1
AC50 [8]: 7.74 µM (active) | AC50 [9]: 22.7 µM (active) | AC50 [10]: 5.97 µM (active) | AC50 [11]: 7.86 µM (active) | AC50 [12]: > 52 µM (inactive) | AC50 [13]: 1.19 µM (active) | AC50 [14]: > 100 µM (inactive) | AC50 [15]: 0.825 µM (active) | AC50 [16]: 1.04 µM (active) | AC50 [17]: 1.35 µM (active)

Now from value to molecule:

IC50 (Estrogen receptor beta [5]): 16.1 µM (active) | IC50 (Estrogen receptor beta [6]): < 0.023 µM (not active)
SMILES: COc1ccc(C2CC(=O)Nc3ccccc3S2(=O)=O)cc1OC (stereo unspecified)

IC50 [7]: 19.7 µM (inactive)
SMILES: NC(=O)[C@H]1CC2(CC(c3cccc(NC(=O)[C@H]4CCC(=O)N4)c3)=NO2)CN1C(=O)c1ccccc1 (stereo partly specified)
